For assay [1], the system named is KMS-27. The assay can be described thus: CellTiter-Glo proliferation assay, CD48 MCL-1 and BCL-2 ADCs (Example 4). To be noted: KMS-27, 120 h, read-out: KMS-27 IC50 (nM). Background: ATP-based viability assays read luminescence as a measure of living cells.
Protocol: (§3) The ability of the MCL-1 and BCL-2 antibody drug conjugates to inhibit cell proliferation and survival was assessed using the Promega CellTiter-Glo® proliferation assay.
(§4) Cell lines were cultured in media that is optimal for their growth at 5% CO2, 37° C. in a tissue culture incubator. Prior to seeding for the proliferation assay, the cells were split at least 2 days before the assay to ensure optimal growth density. On the day of seeding, cell viability and cell density were determined using a cell counter (Vi-Cell XR Cell Viability Analyzer, Beckman Coulter). […] Cells were seeded at a density of 1,000 cells per well in 45 μL of standard growth media. Plates were incubated at 5% CO2, 37° C. overnight in a tissue culture incubator. The next day, free MCL-1 and BCL-2 payloads, targeting MCL-1 and BCL-2 ADCs, and non-targeting isotype ADCs free MCL-1 and BCL-2 payloads, were prepared at 10× in standard growth media. […] Each drug concentration was tested in quadruplets. Plates were incubated at 5% CO2, 37° C. for 5 days in a tissue culture incubator, after which cell viability was assessed through the addition of 25 L μof CellTiter Glo® (Promega, cat #G7573), a reagent which lyses cells and measures total adenosine triphosphate (ATP) content. Plates were incubated at room temperature for 10 minutes to stabilize luminescent signals prior to reading using a luminescence reader (EnVision Multilabel Plate Reader, PerkinElmer). To evaluate the effect of the drug treatments, luminescent counts from wells containing untreated cells (100% viability) were used to normalize treated samples. […] IC50 and Amax values were extrapolated from the resultant curves.
The test system of assay [2] is KMS-27. In words: CellTiter-Glo proliferation assay, CD48 MCL-1/BCL-xL and BCL-xL ADCs (Example 6). Format: cell-based. Particulars: Table 3 CD48 ADC, 5 days. On the procedure:
(§1) The next day, free MCL-1 payload (P1), free BCL-xL payload (P5 and P6) and targeting MCL-1 and BCL-xL ADCs and targeting BCL-xL ADCs were prepared at 10X in standard growth media. […] Each drug concentration was tested in quadruplets.

For assay [3], the system named is AMO-1. Described as above. Format: cell-based. To be noted: Table 3 CD48 ADC, 5 days. On the procedure:
as §1

Assay [4] relates to cancer cell lines expressing CD48, CD74, EphA2, Her2 and PCAD. In words: CellTiter-Glo proliferation assay, summary over the Example 6 cell lines. The assay is classed as cell-based. To be noted: representative CD48 and CD74 cancer cell lines; read-out: IC50 values range. On the procedure: (§2) The CD74 MCL-li and BCL-xLi antibody drug conjugates and the CD74 BCL-xL antibody drug conjugates were tested against two endogenous cancer cell lines. • Kasumi-6: ATCC No. CRL-2775 cultured in RPMI 1640 medium with 2 mM L-glutamine adjusted to contain 1.5 g/L sodium bicarbonate, 4.5 g/L glucose, 10 mMv HEPES, and 1.0 mM sodium pyruvate supplemented with 2 ng/ml human recombinant granulocyte macrophage colony stimulating factor (GM-CSF) and 20% FBS • EOL-1: DSMZ No. ACC-386 cultured in RPMI-1640+10% FBS
The EphA2 antibody drug conjugates were tested against one endogenous cancer cell line. • HCC-38: ATCC No. CRL-2314 cultured in RPMI-1640+10% FBS
as §1

In the next assay the test system is KE-97. The assay can be described thus: CellTiter-Glo proliferation assay, CD48 MCL-1 and BCL-2 ADCs (Example 4). To be noted: KE-97, 120 h, read-out: Ke97 IC50 (nM).
For another assay, the system named is RL. Described as above. To be noted: Homo sapiens, 120 h, read-out: RL IC50 (nM).
Assay [5] relates to AMO-1. The assay is described as above. Particulars: Homo sapiens, AMO1, 120 h, read-out: AMO-1 IC50 (nM).
Another assay deals with NCI-H929. The assay is described as above. Particulars: Homo sapiens, NCI-H929, 120 h, read-out: NCI-H929 IC50 (nM).
The test system of a further assay is KHM-1B. The description is as above. To be noted: 120 h, read-out: KHM-1B IC50 (nM).
For the next assay, the system named is KMS-21-BM. The description is as above. To be noted: 120 h, read-out: KMS-21-BM IC50 (nM).
For another assay, the system named is Kasumi-6. In words: CellTiter-Glo proliferation assay, CD74 MCL-1/BCL-xL and BCL-xL ADCs (Example 6). The assay is classed as cell-based. To be noted: Table 4 CD74 ADC, 5 days. On the procedure:
as §2, §1

The test system of assay [6] is EOL-1. The assay is described as above. Format: cell-based. Particulars: Table 4 CD74 ADC, 5 days. On the procedure: as §2, §1
In assay [7] the test system is EOL-1. In words: CellTiter-Glo proliferation assay, CD74 Milatuzumab MCL-1i and BCL2i ADCs (Example 5). Particulars: EOL-1, 5 days, 0.008-150 nM. The assay is classed as cell-based. On the procedure: The CD74 Milatuzumab […] […] The next day, free MCL-1 payload (P1) and targeting MCL-1 and BCL-2 ADCs were prepared at 10X in standard growth media. […] Each drug concentration was tested in quadruplets.

In the next assay the test system is WSU-DLCL2. In words: CellTiter-Glo proliferation assay, CD48 MCL-1 and BCL-2 ADCs (Example 4). To be noted: Homo sapiens, WSUDLCL2, 120 h, read-out: WSU-DLCL2 IC50 (nM).
Another assay deals with MOLP-8. The assay is described as above. To be noted: Homo sapiens, MOLP-8, 120 h, read-out: MOLP-8 IC50 (nM).

Protocol for KE-97: as §3, §4
Protocol for KHM-1B: as §3, §4
Protocol for KMS-21-BM: as §3, §4
Protocol for MOLP-8: as §3, §4
Protocol for NCI-H929: as §3, §4
Protocol for RL: as §3, §4
Protocol for WSU-DLCL2: as §3, §4

Turning to `COc1ccccc1-c1nccc(COc2ccccc2C[C@@H](Oc2ncnc3sc(-c4ccc(F)cc4)c(-c4ccc(OCCN5CCN(C)CC5)c(Cl)c4C)c23)C(=O)O)n1` [P1], the IC50 was 13.3 nM in the assay on KMS-27 [1]; 5.23 nM with KMS-27 [2] (KMS-27, 120 h, 0.01-600 nM); 3.8 nM with AMO-1 [3] (Homo sapiens, AMO1, 120 h, 0.01-600 nM); 0.685 to 36 nM in assay [4]; > 250 nM in the assay with KE-97; > 250 nM with RL. The IC50 with AMO-1 [5] was 4.7 nM; in the assay on NCI-H929, 5.17 nM; in the assay with KHM-1B it was 1.62 nM; with KMS-21-BM, 1.66 nM; in the assay on Kasumi-6 (120 h, 0.01-600 nM), 36 nM; in the assay on EOL-1 [6] (Homo sapiens, EOL1, 120 h, 0.01-600 nM), 0.685 nM. Also, the IC50 with EOL-1 [7] (Homo sapiens, EOL1, 120 h) was 0.338 nM; in the assay on WSU-DLCL2, 41.1 nM; with MOLP-8 it was 6.17 nM. For the same compound, in the assay on KMS-27 [2], the “KMS-27 Amax (Span)” value came out at 96.7. In the assay with AMO-1 [3], the “AMO-1 Amax (Span)” value is 95.8. The “Kasumi-6 Amax (Span)” value in the assay with Kasumi-6 turned out to be 111.4. In the assay on EOL-1 [6], the “EOL-1 Amax (Span)” value is 98.4. The “Amax (Span)” value in the assay on EOL-1 [7] was 88.6.

One may read the IC50 as the concentration that inhibits the measured activity by half.

Source of the values: US20250387504A1, “ANTIBODY-DRUG CONJUGATES OF ANTINEOPLASTIC COMPOUNDS AND METHODS OF USE THEREOF” (Novartis AG, priority 2022, published 2025).
